# Results from patent US10655183B2, “Carcinoma diagnosis and treatment based on ODC1 genotype” (THE ARIZONA BOARD OF REGENTS ON BEHALF OF THE UNIVERSITY OF …, priority 2014, dated 2020).
# Assays:
# [1] = test system: rat-tumor model; conditions: DFMO infusion; cited from earlier work
# [2] = test system: humans; conditions: low doses of 0.4 g/m^2/day; cited from earlier work
# [3] = test system: ODC1 +263 G promoter/intron 1 luciferase plasmid; test: ODC1 promoter/intron 1 luciferase reporter transfection in HCT116 cells; type: cell-based, human; conditions: 2 μM NSC176327, 24 h, normalized to time-matched DMSO
# Protocol: (§1) HCT116 cells were transfected in 24-well plates. Cells were seeded at 0.1×10^6 cells/well 24 h prior transfection. Each well was transfected with 0.25 μg of each plasmid and 0.025 μg of Renilla-TK plasmid using 2.5 μL Lipofectamine 2000 reagent (Invitrogen) according to the manufacturer's instructions. The Renilla-TK plasmid was purchased from Promega and used as a transfection efficiency control in all promoter-reporter transfection experiments. For the overexpression experiments, ODC1 pGL3-Basic or Enhancer plasmids were co-transfected with the corresponding plasmid: pcDNA 3.0 empty vector, pcDNA3-c-MYC expression vector (Ricci et al., 2004) (Addgene plasmid 16011), full-length pN3-Sp1FL (Sapetschnig et al., 2004) (Addgene plasmid 24543), pN3-empty control (Addgene plasmid 24544), N-terminal mutate pPac-Sp1 (Courey and Tjian, 1988) (Addgene plasmid 12095) and pPac0 empty vector (Courey and Tjian, 1988) (Addgene plasmid 12094). After 5 h of transfection, the medium was replaced with fresh normal medium in the absence of antibiotics. […] Dual luciferase activities were measured using a Turner Designs TD-20/20 luminometer, as described by the manufacturer, and presented as relative luciferase units. Experiments were performed in triplicate, repeated at least twice, and analyzed for statistical significance (P<0.05) using two-sample t-tests (Microsoft Excel). […]
# [4] = test system: ODC1 +263 T promoter/intron 1 luciferase plasmid; test: as above; type: cell-based, human; conditions: 2 μM NSC176327, 24 h, normalized to time-matched DMSO
# Protocol: as §1
# [5] = test system: HCT116 colorectal cancer cells; test: HCT116 24 h IC50 and cell viability; type: cell-based, human
# [6] = test system: COX; conditions: cited from earlier work
# [7] = test system: prostoglandin E2 (PGE2) levels in flat mucosa; conditions: 300 mg/day, one month; cited from earlier work
# [8] = cited from earlier work
# [9] = test system: patients; conditions: human, in vivo; cited from earlier work
smiles,measurement,setting,value
"NCCCC(N)(C(=O)O)C(F)F (racemic) [DFMO, 2-(difluoromethyl)-dl-ornithine]",decrease in tumor putrescine levels,[1],90%
same,toxicity,[2],relatively non-toxic
COc1ccc2c(c1)c1c(C)c3cnccc3c(C)c1n2CCCN [NSC176327],reduction of ODC1-luciferase reporter expression,[3],43.6%
same,reduction of ODC1-luciferase reporter expression,[4],47.5%
same,IC50,[5],2000 nM
CC1=C(CC(=O)O)c2cc(F)ccc2/C1=C\c1ccc(S(C)(=O)=O)cc1 [Sulindac sulfone],COX-inhibitory activity,[6],lacks COX-inhibitory activity
CC(C)Cc1ccc(C(C)C(=O)O)cc1 (centres unmarked) [ibuprofen],PGE2 levels in flat mucosa,[7],significant decrease
"CC1=C(CC(=O)O)c2cc(F)ccc2/C1=C\c1ccc([S+](C)[O-])cc1 (centres unmarked) [sulindac, (Z)-5-fluoro-2-methyl-1-((4 (methylsulfinyl)phenyl)methylene) 1H-indene-3-acetic acid]",fraction of the drug absorbed,[8]; oral administration,about 90%
same,time to peak plasma levels,"[8]; oral, fasting patients",about 2 h
same,patients with mild gastrointestinal effects,[9],~20%
same,patients with skin rash and pruritus,[9],5%
